# From paper PMC8667935, “Synthesis and biological evaluation of celastrol derivatives as potent antitumor agents with STAT3 inhibition” (Journal of Enzyme Inhibition and Medicinal Chemistry, 2021)
# Experiments:
# [1] = target: T1, STAT3 (Homo sapiens, UniProt P40763); assay: SPR (Biacore T200, STAT3 amine-coupled to CM5 chip); assay type: binding
# T1 construct: recombinant human STAT3 protein (rhSTAT3)
# [2] = target: T1, STAT3; assay: SPR (Biacore T200, STAT3 amine-coupled to CM5 chip); positive control measured by the authors; assay type: binding
# T1 sequence (P40763 2-770): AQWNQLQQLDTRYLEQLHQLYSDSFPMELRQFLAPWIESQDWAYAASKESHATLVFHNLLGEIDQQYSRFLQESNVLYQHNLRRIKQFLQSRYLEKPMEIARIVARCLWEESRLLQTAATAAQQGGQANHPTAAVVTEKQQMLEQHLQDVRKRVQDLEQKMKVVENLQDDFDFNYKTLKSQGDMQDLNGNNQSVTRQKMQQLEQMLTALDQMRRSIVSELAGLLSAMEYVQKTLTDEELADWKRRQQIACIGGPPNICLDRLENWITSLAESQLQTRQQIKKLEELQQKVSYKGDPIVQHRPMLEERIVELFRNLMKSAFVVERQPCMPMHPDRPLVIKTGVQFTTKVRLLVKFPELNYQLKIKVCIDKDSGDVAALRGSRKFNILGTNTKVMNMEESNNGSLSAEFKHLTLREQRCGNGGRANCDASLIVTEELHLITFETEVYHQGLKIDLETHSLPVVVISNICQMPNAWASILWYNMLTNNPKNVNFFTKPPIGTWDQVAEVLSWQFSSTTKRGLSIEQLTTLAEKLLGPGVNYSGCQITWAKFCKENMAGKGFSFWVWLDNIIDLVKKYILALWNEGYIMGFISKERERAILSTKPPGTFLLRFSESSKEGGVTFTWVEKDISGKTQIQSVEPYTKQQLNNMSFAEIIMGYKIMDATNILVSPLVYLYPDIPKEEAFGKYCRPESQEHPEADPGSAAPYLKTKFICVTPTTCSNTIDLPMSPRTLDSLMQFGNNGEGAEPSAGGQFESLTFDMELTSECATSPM
SMILES,Kd [1] [µM],Kd [2] [µM]
"CC1=C(O)C(=O)C=C2C1=CC=C1[C@@]2(C)CC[C@@]2(C)[C@@H]3C[C@](C)(C(=O)NCCc4cccs4)CC[C@]3(C)CC[C@]12C [4m, 3-Hydroxy-9β,13α-dimethyl-2-oxo-24,25,26-trinoroleana-1(10),3,5,7-tetraen-29-oic acid 2–(2-thienyl) ethylamide]",45.3,
"CC1=C(O)C(=O)C=C2C1=CC=C1[C@@]2(C)CC[C@@]2(C)[C@@H]3C[C@](C)(C(=O)O)CC[C@]3(C)CC[C@]12C [CEL, Celastrol]",,60.4
